Data from a melting point compilation (Tetko et al.; mined from patent text by program, amines drawn as free bases though some values may be those of a salt).

Compound	melting point [°C]
CCCCCCCCCCCCc1c[nH]c(C(=O)OC)c1	68 to 69
Cc1cccc(Cl)c1NC1=NCCN1	112 to 114
c1ccc(Nc2nsc3ccccc23)nc1	247 to 249
C=CCN(CC=C)c1nc(NC(=O)COC)n2oc(=O)nc2n1	135 to 136
COc1ccc2c(c1)C(=O)N(CCCN(C)CCN1C(=O)c3ccccc3C(C)(C)C1=O)C(=O)C2(C)C	158
CC(C)(C)OC(=O)N1CCC(c2ccc(N3C[C@H](CNC(=O)C(Cl)Cl)OC3=O)cc2F)CC1	168 to 170
N#CSc1sc(NC(=O)c2cccc(C(F)(F)F)c2)nc1C(F)(F)F	167 to 168
Cc1cc(Cl)cc(C(=O)NC(C)C)c1NC(=O)c1cc(Br)nn1N1C=CC=C(Cl)C1	159 to 161
CC(=O)NC1(c2ccc(CN3CCN(c4cccc(F)n4)CC3)cc2)CC1	135 to 136
O=C(NCCCN1CCN(Cc2ccc(Cl)cc2)CC1)NC1CCCCC1	109 to 112
N#Cc1ccc(-c2ccc(OCCN(O)C=O)cc2)cc1	142 to 145
O=[N+]([O-])c1ccc(-n2cccn2)cc1	210
Cc1noc(NS(=O)(=O)c2ccsc2C(=O)c2ccc3c(c2)OCO3)c1Br	47 to 49
O=C(NCCc1ccc(CN2CCCC2)cc1)N1CCC(c2ccc(Cl)cc2)CC1	116 to 117
CS(=O)(=O)N1CCN2C(=O)N(c3cc(Cl)cc(Cl)c3)C(=O)C2(Cc2ccc(Br)cc2)C1 (stereo not drawn)	229
CC(CCCn1c(C)nc2c(N)nc3ccccc3c21)=NO	264 to 266
CC1(C)Cc2ccccc2CC(C)(C)C1O	66 to 68
COc1csc2ccc(C(=O)O)c(Cl)c12	185 to 192
COC(=O)C(=O)c1ccc(OCCOc2cccc(F)c2)cc1	68 to 69
CCNC(=O)c1c([Si](C)(C)C)ccc(C)c1Cl	120 to 122
O=C(O)CNC(=Nc1ccc(C(=O)O)cc1)NCC1CCCCC1	164
Cc1c(F)c([N+](=O)[O-])cc2c(=O)c(C(=O)O)cn(-c3cc(N)c(F)cc3F)c12	250 to 252

Compound	melting point [°C]
COC(=O)C=Cc1ccc(-n2c(C)ccc2C)cc1	73 to 75
CCc1nc2c(N)nc3cc(OCCc4c(C)n[nH]c4C)ccc3c2s1	195 to 197
CC(C)c1ccc(C(=O)N(C(=N)N)C(=O)c2ccc(C(C)C)c(S(C)(=O)=O)c2)cc1S(C)(=O)=O	218 to 221
CCCN1CCc2[nH]c3ccc4scc(C)c4c3c2C1	169
CC(C)(C)OC(=O)NCCCCNC(=O)Cc1ccc2ccccc2c1	102
CC=NOCc1nc2c(N)nc3ccccc3c2n1CC(C)C	155 to 156
COc1cc2c(cc1OC)CN(CCCc1ccc(N)cc1)CC2	138
O=C(O)c1ccc(C(c2ccc(C(=O)O)c(C(=O)O)c2)(C(F)(F)F)C(F)(F)F)cc1C(=O)O	231 to 234
CCC(=O)CNC(=O)CSc1cnc(NC(C)=O)s1	195 to 196
Cc1cccc2c(=O)[nH]c(N3CCN(C)CC3)cc12	186 to 188
O=[N+]([O-])c1ccc(Oc2ccccc2-c2ccccc2Oc2ccc([N+](=O)[O-])cc2)cc1	158
CC(=O)c1cccc(NC(=O)NCCN(CCNC(=O)Nc2cccc(C(C)=O)c2)CCNC(=O)Nc2cccc(C(C)=O)c2)c1	193
COc1cc(Cc2cnc(N)nc2N)cc2c1OC(C)(C)C=C2C#CCO	236 to 237
CN1CC(OC(=O)c2ccccc2)N(N2CC=C(C(C)(C)C)O2)C1=O (stereo not drawn)	165 to 166
CCCCCSC1=C(SCCCCC)SC(=C2SC3=C(CN(S(=O)(=O)c4ccc(C)cc4)C3)S2)S1	136 to 137
C=Cc1ccc2nnn(OS(C)(=O)=O)c2c1	129 to 130
CC(C)CCS(=O)C1=C(O)CC(C)(C)CC1=O (stereo not drawn)	64.5 to 66
CC(N(C(=O)c1ccc(C(F)(F)F)cc1)[C@H](C)C(=O)O)[C@](O)(Cn1cncn1)c1ccc(F)cc1F (mixture of isomers)	219 to 221
CCCCc1nc2c(N)nc3ccccc3c2n1CCCCC(N)=O	219 to 221
O=[N+]([O-])c1cccc(Cc2nnn[nH]2)c1	140
Cn1c(/C=C/[N+](=O)[O-])cc2cccc(F)c21	153 to 156
CCn1cc(C(=O)O)c(=O)c2cc(F)c(N3CCC(CNC4CC4)C3)nc21 (stereo not drawn)	271 to 274

Compound	melting point [°C]
COC(=O)c1ccccc1Nc1cccc(N2N=CN(C)N2)c1	106 to 108
Nc1c(Br)cc(Cl)cc1C(=O)c1ccccc1Cl	100 to 101
COc1ccc(CCN2CCCC(CO)C2)cc1OC (stereo not drawn)	87.5 to 89
O=C1c2ccccc2S(=O)(=O)N1CCCCBr	72
CCOC(=O)CCc1cc(CCC(N)=O)cc(Cc2ccc(F)cc2)c1	69 to 70
CCn1cc(C(=O)NC2CCCc3ccccc32)c(=O)c2cnc(N3CCCC3)nc21 (stereo not drawn)	284 to 286
CN(C)C(=O)c1ccc2c(c1)C(=NNc1ccc(S(N)(=O)=O)cc1)C(=O)N2	> 230
CSc1nnc(-c2ccc3occ(-c4cc(F)ccc4F)c3c2)o1	158 to 159
CC(C)(C)c1cc(NC(=O)NCCCl)cc(C(C)(C)C)c1O	169 to 171
Nc1ncnc2c1ncn2C1CC(=CF)C(O)C1O (stereo not drawn)	167 to 169
CC(=O)C1Oc2cc3c(cc2O1)=NC(F)(F)N=3	> 220
COCc1ccc([C@H]2CC[C@H]([C@H]3CC[C@H](C=O)CC3)CC2)cc1F	52 to 54
COC(=O)C1C(C)=NC(N2CCCC2)=C(C(=O)OC(C)C)C1c1cccc([N+](=O)[O-])c1 (stereo not drawn)	140
O=C(O)c1cncc(O)c1C(=O)c1cc(Cl)ccc1F	262 to 264
Cc1ccc2nc(O)c(O)nc2c1	> 300
CC(C)(C)NC(=O)c1nn(-c2c(F)cc(F)cc2F)c2c1C1CCC2C1 (stereo not drawn)	142 to 146
O=c1[nH]c(-c2ccccc2)c(-c2ccccc2S(=O)(=O)NCCCBr)o1	232 to 235
CC(O)Cn1nc2c3c(ccc([N+](=O)[O-])c31)CCC2 (stereo not drawn)	144 to 146
CS(=O)(=O)c1csc(NC(=O)c2ccccc2O)n1	231 to 235
O=C(CO)c1ccc(C2CCCCC2)cc1	104 to 106

Second part, the compound after the results:

melting point [°C]	Compound
125 to 127	COc1ccc(-n2nc(C(=O)CCCO)cc2-c2ccc(S(C)(=O)=O)cc2)cc1
200 to 202	O=C(NCc1ccc2cc(O)ccc2c1)c1cc2ccccc2o1
100 to 102	COc1cccc(C=C2N=C(c3ccccc3)OC2=O)c1
125 to 130	CCCCN(CCCC)c1ccc(C=Cc2ccc(C(C#N)=C(C#N)C#N)s2)c(OCc2ccccc2)c1
123 to 125	Clc1ccc(-c2c(Cl)nc(Cl)nc2-c2ccccc2)cc1
125 to 126	CCCCCCCNC(=O)N(C)c1cccc(-c2ccc(C=CC(=O)O)cc2)c1
115 to 116	CC(C)(OCc1nn(Cc2ccccc2)c2ccccc12)C(=O)NO
312 to 313	COc1ccccc1-n1c(=O)[nH]c2c(C(N)=O)nc(-c3cccc4[nH]ccc34)nc21
178	Cc1ccc(-c2nc3ccc(O)cc3n2Cc2ccccc2C(F)(F)F)cc1C
124 to 126	CN(C)c1cccc(-c2ccc3nnn(Cc4ccc5ncccc5c4)c3n2)c1
265 to 267	O=C1C(=O)c2ccc(-c3ccncc3)cc2C2=C1SCC1(CCN(C(=O)c3cccc(Cl)c3)CC1)O2
167 to 169	c1ccc(-c2cccc(-c3nc4c5ccccc5ccn4n3)c2)cc1
130 to 135	CC1(c2cccnc2F)OC(=S)N(Nc2ccccc2)C1=O (stereo not drawn)
307 to 308	CN(C)c1ccc2c(c1)C(=O)CC(c1cccc(OCc3ccccc3)c1)=N2
206 to 209	N=C(N)c1ccc2[nH]cc(CCN3C(=O)c4ccccc4C3=O)c2c1
207 to 210	Cc1[nH]c2ccccc2c1Cc1cccnc1
128	Cc1cccc(-c2n[nH]cc2-c2ccnc(-c3ccc(-n4ccnc4C)cc3)c2)n1

melting point [°C]	Compound
153 to 155	CC(=O)Nc1nc2c(Oc3cc(-c4ccc(C(F)(F)F)cc4NC(=O)C4CCCCN4CC(C)C)ncn3)cccc2s1 (stereo not drawn)
199 to 205	CS(=O)(=O)c1cccc(Nc2cc(-c3ccccc3OCc3ccccc3)ncn2)c1
278 to 280	Cn1c2ccc(Cl)cc2c2c(CO)nn(-c3ccccc3)c(=O)c21
97 to 98	COc1cc(Nc2nccc(-c3ccc(N(C)CCN(C)C)nc3)n2)cc(OC)c1OC
239 to 241	O=C1c2cccc3cc([N+](=O)[O-])cc(c23)C(=O)N1OCc1ccccc1
80 to 81	CC(=O)c1ccc(OCCCc2ccccc2)cc1
174 to 176	CC1(C)C[C@@H](n2c(=O)c(Cl)nc3ccccc32)c2cc(C#N)ccc2O1
214 to 217	c1ccc(Cc2nnc(Nc3cccc(-n4ccnc4)c3)c3ccccc23)cc1
298	COc1cc(C(=O)O)c(-n2c3ccccc3c3ccccc32)cc1C(=O)O
275	Cc1cc(-c2cc(C(F)(F)F)n3ncc(C(=O)Nc4cccc(S(N)(=O)=O)c4)c3n2)ccc1Cl
175	COc1ccc(CN(C)CCc2ccc(NC(=O)c3cccc4c(=O)c5cccc(F)c5[nH]c34)cc2)cc1OC
180 to 181	O=C(N(CCCc1c[nH]c2ccccc12)CCOc1cccc2[nH]c(=O)[nH]c12)C(F)(F)F
107 to 108	O=Cc1ccc2cc(OCc3ccccc3)ccc2c1
60 to 62	CCC(COCc1cccc(Cl)c1)n1cnc2c(N)nc3ccccc3c21 (stereo not drawn)
200 to 210	O=C(O)c1cc(-c2ccc3c(c2)CCO3)nn(Cc2ccc(Cl)cc2)c1=O
131 to 135	CCN(C(=O)OC)c1cccc(-c2ccc3nncn3n2)c1
78 to 80	O=C(O)CCCOc1ccc(CNC(=O)C2Cc3ccccc3N2S(=O)(=O)c2ccc(-c3cccc(C(F)(F)F)c3)cc2)cc1 (stereo not drawn)
